Test results published in US8163909B2, “Substituted hydroxyethyl amine compounds as beta-secretase modulators and methods of use” (Amgen Inc., priority 2007, dated 2012).
Where two headings read alike, the source gives them in different places.

What was measured:
[1] = Microsomal stability assay, human liver microsomes;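 note: pooled human liver microsomes at 0.25 mg/mL with 1 µM compound and NADPH at 37 °C, pH 7.4, for 30 min, unchanged parent quantified by LC-MS/MS against the 0 min sample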
[2] = target: Beta Secretase enzyme (BACE) (Homo sapiens, UniProt P56817); assay: In vitro enzymatic BACE FRET (fluorescence resonance energy transfer) assay; format: biochemical;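 note: fluorescence read after 1 h with 50 nM quenched peptide substrate spanning the BACE cleavage site, in pH 4.2 acetate buffer containing 10% DMSO and nonionic detergent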
CYP3A4 (CYP3A) = CYP3A4 (CYP3A) (Homo sapiens, UniProt P08684); assay: in vitro; conditions: microsomes, pH 7.4;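 note: inhibition of CYP3A-mediated 1-hydroxymidazolam formation after 10 min incubation with NADPH, quantified by HPLC MS relative to metabolite produced without test compound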
[3] = Microsomal stability assay, rat liver microsomes;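 note: rat liver microsomes (0.25 mg/mL) with about 1 µM compound plus 1 mM NADPH, pH 7.4, 37 °C for 30 min, parent left measured by LC-MS/MS against 0 min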
CYP2D6 = CYP2D6 (Homo sapiens, UniProt P10635); assay: CYP2D6 inhibition assay (bufuralol, pooled human liver microsomes)
[4] = tested on: Aβ40 in conditioned medium of cells stably expressing Amyloid Precursor Protein (APP); assay: In vitro BACE cell-based assay (Aβ40 in conditioned medium, sandwich ELISA); conditions: Homo sapiens;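 note: compounds added as a dilution series, secreted peptide quantified by europium time-resolved fluorescence readout, potency fitted from percent of control versus compound concentration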
[5] = BACE enzyme assay, IC50's in uM, read-out: BACE1 FRET assay
[6] = 2D6 IC50 (uM), CYP enzyme inhibition
[7] = BACE enzyme assay, read-out: BACE1 FRET assay
[8] = HEK293, HEK cells, read-out: HEK cell assay
[9] = 2D6 IC50, CYP enzyme inhibition
[10] = BACE enzyme assay IC50, read-out: BACE1 FRET assay
[11] = 2D6 IC50 (uM), CYP2D6 inhibition
[12] = HEK293, HEK cell-based assay IC50, read-out: HEK cell assay

Sequence of CYP2D6 (P10635 whole entry): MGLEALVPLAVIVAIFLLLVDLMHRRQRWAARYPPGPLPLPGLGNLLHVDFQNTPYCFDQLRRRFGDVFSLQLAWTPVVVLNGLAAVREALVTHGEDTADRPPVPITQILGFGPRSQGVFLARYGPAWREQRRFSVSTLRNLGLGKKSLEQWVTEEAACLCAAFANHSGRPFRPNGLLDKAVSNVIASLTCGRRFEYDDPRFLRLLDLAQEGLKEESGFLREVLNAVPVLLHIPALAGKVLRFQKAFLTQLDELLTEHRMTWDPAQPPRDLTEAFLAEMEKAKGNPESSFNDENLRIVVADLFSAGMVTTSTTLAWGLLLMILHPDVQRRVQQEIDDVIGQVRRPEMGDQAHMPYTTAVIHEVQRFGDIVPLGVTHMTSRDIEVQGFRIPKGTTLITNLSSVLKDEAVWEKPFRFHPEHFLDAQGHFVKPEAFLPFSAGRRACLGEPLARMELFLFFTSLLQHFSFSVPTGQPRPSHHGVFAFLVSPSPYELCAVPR
Sequence of CYP3A4 (CYP3A) (P08684 2-503): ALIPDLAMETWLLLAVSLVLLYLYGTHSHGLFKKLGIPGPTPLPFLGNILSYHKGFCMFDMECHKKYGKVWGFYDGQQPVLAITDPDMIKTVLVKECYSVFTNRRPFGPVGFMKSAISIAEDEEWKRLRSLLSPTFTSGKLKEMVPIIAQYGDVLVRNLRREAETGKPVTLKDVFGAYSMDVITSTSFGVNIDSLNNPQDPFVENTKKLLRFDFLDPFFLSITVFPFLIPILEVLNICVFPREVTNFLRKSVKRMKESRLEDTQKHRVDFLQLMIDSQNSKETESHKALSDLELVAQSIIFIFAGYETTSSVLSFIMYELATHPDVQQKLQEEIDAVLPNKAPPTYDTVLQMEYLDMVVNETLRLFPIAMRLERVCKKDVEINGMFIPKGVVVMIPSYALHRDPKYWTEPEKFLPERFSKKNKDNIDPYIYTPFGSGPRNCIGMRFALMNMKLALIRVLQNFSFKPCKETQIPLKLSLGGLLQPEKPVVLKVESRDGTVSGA
Sequence of Beta Secretase enzyme (BACE) (P56817 46-501): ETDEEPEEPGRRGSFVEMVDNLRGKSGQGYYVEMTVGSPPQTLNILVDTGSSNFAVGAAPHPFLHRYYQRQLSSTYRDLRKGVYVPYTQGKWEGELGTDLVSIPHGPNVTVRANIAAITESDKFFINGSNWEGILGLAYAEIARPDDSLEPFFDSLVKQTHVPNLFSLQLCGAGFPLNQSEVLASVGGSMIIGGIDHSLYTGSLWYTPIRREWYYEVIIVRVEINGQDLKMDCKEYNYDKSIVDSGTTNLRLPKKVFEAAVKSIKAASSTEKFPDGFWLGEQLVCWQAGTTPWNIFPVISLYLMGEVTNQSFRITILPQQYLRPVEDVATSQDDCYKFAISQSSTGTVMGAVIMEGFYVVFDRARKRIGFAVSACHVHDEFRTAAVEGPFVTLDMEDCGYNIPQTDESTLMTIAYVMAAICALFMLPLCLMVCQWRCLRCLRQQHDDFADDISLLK

SMILES | HLM ([1]; human liver microsomal data) [µL/min/mg] | IC50 (CYP3A4 (CYP3A)) [µM] | RLM ([3]; rat liver microsomal data) [µL/min/mg] | IC50 (CYP2D6; [6]) [µM] | IC50 [2, 7] [µM] | IC50 [4, 8] [µM] | further results
CC#Cc1cnc2c(c1)[C@@H](NC[C@@H](O)[C@H](Cc1cccc(Br)c1)NC(=O)COC)CC1(CCC1)O2 [compound 812] | 260 | 0.4 | 345 | 3 |  |  | IC50 [2, 5]: 0.258 µM; IC50 ([4]; HEK293, HEK cell-based assay, IC50's in uM, read-out: HEK cell assay): 0.954 µM
COCC(=O)N[C@@H](Cc1cc(F)cc(F)c1)[C@H](O)CN[C@H]1CC2(CCC2)Oc2c1cc(CC(C)(C)C)nc2Nc1cccnc1 [compound 568] | 214 | 0.2 | 304 | 9.3 | 0.025 | 0.019 | 
CC(C)(C)Cc1cnc2c(c1)[C@@H](NC[C@@H](O)[C@H](Cc1cc(F)cc(-c3nccs3)c1)NC(=O)[C@H]1CCCO1)CC1(CCC1)O2 [compound 877] | 46 | 0.2 | 64 |  |  |  | IC50 [2, 5]: 0.005 µM; IC50 (CYP2D6; [9]): 0.7 µM; IC50 ([4]; HEK293, cell-based assay, HEK cells, IC50's in uM, read-out: HEK cell assay): 0.012 µM
COCC(=O)N[C@@H](Cc1cc(F)cc(F)c1)[C@H](O)CN[C@H]1CC2(CCC2)Oc2c(-c3cccnc3)cc(CC(C)(C)C)cc21 [compound 489] | 399 | 0.4 | 775 | 3.9 | 0.007 | 0.02 | 
COCC(=O)N[C@@H](Cc1cccc(F)c1)[C@H](O)CN[C@H]1CC2(CCC2)Oc2ccc(C[C@H](C)F)cc21 [compound 512] | 614 | 5.7 | 829 | 0.5 | 0.028 | 0.061 | 
COCC(=O)N[C@@H](Cc1ccc(F)c(-c2ncc(C)s2)c1)[C@H](O)CN[C@H]1CC2(CCC2)Oc2ncc(CC(C)(C)C)cc21 [compound 729] |  | 0.4 |  |  |  |  | HLM ([1]; human liver microsomes): 371 µL/min/mg; IC50 [2, 10]: 0.048 µM; RLM ([3]; rat liver microsomes): 399 µL/min/mg; IC50 (CYP2D6; [11]): 3.9 µM; IC50 [4, 12]: 0.291 µM
COCC(=O)N[C@@H](Cc1cc(F)cc(F)c1)[C@H](O)CN[C@H]1CC2(CCC2)Oc2c(-c3nccs3)cc(CC(C)(C)C)cc21 [compound 463] | 682 | 1.1 | 662 |  |  |  | IC50 ([2]; Table 2, read-out: BACE1 FRET assay): 0.003 µM; IC50 (CYP2D6; [9]): 7.2 µM; IC50 ([4]; HEK293, Table 2, HEK cells, read-out: HEK cell assay): 0.048 µM
CC[C@H](OC)C(=O)N[C@@H](Cc1ccc(F)cc1)[C@H](O)CN[C@H]1CC2(CCC2)Oc2ncc(CC(C)(C)C)cc21 [compound 572] | 290 | 0.2 | 569 | 8.1 | 0.102 | 0.094 | 
COCC(=O)N[C@@H](Cc1cccc(F)c1)[C@H](O)CN[C@H]1CC2(CCC2)Oc2c(Br)cc(CC(C)C)cc21 [compound 514] | 682 | 1.5 | 560 | 6 | 0.003 | 0.128 | 
CC(=O)N[C@@H](Cc1ccc(F)cc1)[C@H](O)CN[C@H]1CC2(CCC2)Oc2c1cc(CC(C)(C)C)nc2N1CCOCC1 [Example 421, N-((2S,3R)-4-((S)-2,2-spirocyclobutyl-8-morpholino-6-neopentyl-3,4-dihydro-2H-pyrano[2,3-c]pyridin-4-ylamino)-1-(4-fluorophenyl)-3-hydroxybutan-2-yl)acetamide] | 211 | 1.3 | 151 | 3.6 | 0.134 | 0.054 | 
COCC(=O)N[C@@H](Cc1cncs1)[C@H](O)CN[C@H]1CC2(CCC2)Oc2c(-c3ccncc3)cc(CC(C)(C)C)cc21 [compound 633] |  | 0.1 |  |  |  |  | HLM ([1]; human liver microsomes): 53 µL/min/mg; IC50 ([2]; read-out: BACE1 FRET assay (IC50)): 0.021 µM; RLM ([3]; rat liver microsomes): 153 µL/min/mg; IC50 (CYP2D6; 2D6 IC50, CYP2D6 inhibition): 3 µM; IC50 ([4]; HEK293, HEK cells, read-out: HEK cell assay (IC50)): 0.011 µM
Cc1cccc(CN2CCO[C@@H](C(=O)N[C@@H](Cc3ccc(F)cc3)[C@H](O)CN[C@H]3CC4(CCC4)Oc4ncc(CC(C)(C)C)cc43)C2)c1 [compound 685] |  | 0.2 |  |  |  |  | HLM ([1]; human liver microsomes): 662 µL/min/mg; IC50 [2, 10]: 0.013 µM; RLM ([3]; rat liver microsomes): 283 µL/min/mg; IC50 (CYP2D6; [11]): 3.1 µM; IC50 [4, 12]: 0.012 µM
